The text below walks through data of patent publication US9480627B2, “Long term bacteriostatic compounds and their use in restorative dental materials” (priority 2010, dated 2016).

The nature of the data set: Storage stability in sealed container in 37 C oven for nine months. The following applies: nine month storage period. The text has this:
These ingredients were blended together until homogenous and were allowed to remain in a sealed container in a 37 C oven for nine months.

As for Zinc pyrithione, the “stability with acrylic dental adhesives (premature cure on storage)” value is given as “does not cure”.
